Assay results as given in paper PMC12067093, “Discovery and optimisation of a covalent ligand for TRIM25 and its application to targeted protein ubiquitination” (Chemical Science, 2025).

Tests used:
E1 (His6-UBA1) = biological target: T1, E1 (His6-UBA1) (Mus musculus, UniProt Q02053); assay: E1~Ub loading assay; type: biochemical; conditions: E1 2 μM pre-treated with compound 100 μM for 30 min at RT; reducing and non-reducing conditions
T1 construct: made in house
T1 sequence (Q02053 1-1058): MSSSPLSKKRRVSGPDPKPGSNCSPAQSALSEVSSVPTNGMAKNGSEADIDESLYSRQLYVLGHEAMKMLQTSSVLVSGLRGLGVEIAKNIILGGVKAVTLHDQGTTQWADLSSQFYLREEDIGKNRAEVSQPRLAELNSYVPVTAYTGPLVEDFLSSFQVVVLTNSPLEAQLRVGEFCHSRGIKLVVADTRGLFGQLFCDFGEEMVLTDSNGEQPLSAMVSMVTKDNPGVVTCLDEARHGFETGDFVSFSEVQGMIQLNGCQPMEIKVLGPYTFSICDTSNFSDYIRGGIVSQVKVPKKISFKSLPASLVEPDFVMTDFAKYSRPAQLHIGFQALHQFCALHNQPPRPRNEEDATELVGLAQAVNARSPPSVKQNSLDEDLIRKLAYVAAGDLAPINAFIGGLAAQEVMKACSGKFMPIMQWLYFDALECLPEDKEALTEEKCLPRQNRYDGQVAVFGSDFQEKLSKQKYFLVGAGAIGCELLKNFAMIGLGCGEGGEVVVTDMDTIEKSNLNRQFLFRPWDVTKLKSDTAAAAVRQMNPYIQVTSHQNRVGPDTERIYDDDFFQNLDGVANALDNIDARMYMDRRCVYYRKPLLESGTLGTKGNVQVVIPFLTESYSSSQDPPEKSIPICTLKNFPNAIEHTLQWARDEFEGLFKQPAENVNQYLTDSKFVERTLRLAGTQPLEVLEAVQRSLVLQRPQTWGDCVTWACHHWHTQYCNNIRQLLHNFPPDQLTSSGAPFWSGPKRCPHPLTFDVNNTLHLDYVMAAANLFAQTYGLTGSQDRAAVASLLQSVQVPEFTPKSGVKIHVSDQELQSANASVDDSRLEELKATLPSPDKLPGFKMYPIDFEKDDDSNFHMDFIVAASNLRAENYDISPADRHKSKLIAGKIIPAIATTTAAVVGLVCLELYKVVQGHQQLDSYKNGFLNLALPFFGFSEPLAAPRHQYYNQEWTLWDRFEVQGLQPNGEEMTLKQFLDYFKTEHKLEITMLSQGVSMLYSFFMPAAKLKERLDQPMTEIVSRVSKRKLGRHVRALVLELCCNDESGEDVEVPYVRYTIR
Method: 2 Supplementary Figure 6 Further biochemical characterisation of purified
4 A) Schematic of auto-ubiquitination assay, with pre-labelled full-length TRIM25. Created in
5 BioRender. McPhie, K. (2025) https://BioRender.com/q86g447; B) Auto-ubiquitination time
7 µM) was incubated with compounds (50 µM) or DMSO (1%) for 16 h at 4 °C, before addition
8 of E1 (0.2 µM), UBCH5B (2 µM), Ub (50 µM), UbATTO (1 µM). The assay was initiated by the
9 addition of ATP, and performed for 60 min at 30 °C. Time point 0 was taken before the addition
10 of ATP. Samples were analysed by SDS-PAGE, with Coomassie staining and scanning at 700
11 nm wavelength (for ATTO emission).
12 of His10-TRIM25 (which has not been ubiquitinated) where % His10-TRIM25 (relative to time =
13 0 min) is plotted vs reaction time. Data are presented as n = 1; D) E1~Ub loading assay with
E1 (2 µM) was incubated with
15 compounds (100 µM) or DMSO (1%) for 30 min at RT, before addition of UBCH5B (2 µM) and
16 Ub (10 µM). The assay was initiated by the addition of ATP (1 mM), and performed for 5 min
17 at 30 °C. After 5 min, samples were treated with either loading dye, or loading dye with DTT,
18 and analysed by SDS-PAGE, with Coomassie staining; E) Cellular target identification for 11
19 (50 µM, left, and 10 µM, right, 4 h incubation at 37 °C in live THP-1 cells) using an […]

[1] = biological target: T2, TRIM25 (peptide FTYC^498SQVLGLHC^506YK) (Homo sapiens, UniProt Q14258); assay: IA-DTB competitive chemoproteomics in live THP-1 cells; type: cell-based, 9606; conditions: 4 h at 37 °C, compound tested at 50 μM and 10 μM, significant if FC ≤ 0.25, p-value ≤ 0.01
T2 construct: endogenous in cells; host or cells: THP-1
T2 sequence (Q14258 whole entry): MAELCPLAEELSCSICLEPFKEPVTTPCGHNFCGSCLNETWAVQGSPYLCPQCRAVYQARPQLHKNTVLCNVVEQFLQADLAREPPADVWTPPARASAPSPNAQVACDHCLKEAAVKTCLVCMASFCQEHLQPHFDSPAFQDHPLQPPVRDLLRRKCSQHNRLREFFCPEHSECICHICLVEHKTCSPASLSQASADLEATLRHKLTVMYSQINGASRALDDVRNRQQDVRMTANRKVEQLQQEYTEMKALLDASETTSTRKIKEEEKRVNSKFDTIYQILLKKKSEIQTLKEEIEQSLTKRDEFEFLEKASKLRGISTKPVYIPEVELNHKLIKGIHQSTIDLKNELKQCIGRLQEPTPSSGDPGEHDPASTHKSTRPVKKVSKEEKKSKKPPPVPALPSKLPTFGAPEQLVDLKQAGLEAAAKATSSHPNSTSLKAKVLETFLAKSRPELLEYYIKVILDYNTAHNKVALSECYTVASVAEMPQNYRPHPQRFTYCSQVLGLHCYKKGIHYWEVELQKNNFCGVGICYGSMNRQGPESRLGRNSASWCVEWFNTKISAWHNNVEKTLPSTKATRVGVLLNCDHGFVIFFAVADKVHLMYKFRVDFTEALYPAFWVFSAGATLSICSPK

Row | E1~Ub loading (E1 (His6-UBA1)) | SMILES | TRIM25 engagement in cells [1]
1 | not inhibited | CC1Cc2ccccc2N1C(=O)C1CCCN(C(=O)CCl)C1 (stereo not shown) [Compound 11] | not observed to engage TRIM25
2 | not inhibited | Cc1cc(C(=O)N2CCCN(C(=O)CCl)CC2)ccc1-c1ccccc1 [Compound 10] | engaged TRIM25 in cells at the PRYSPRY domain at 50 μM
